pEC50: −log10 of the molar value.
How the values were obtained:
Format in all cases: cell-based
human TRPML1 = human TRPML1 (Homo sapiens, UniProt Q9GZU1); test: Fluorescent TRPML1 assay (Fluo4-AM calcium fluorescence); conditions: HEK-293 Trex cells expressing hTRPML1, Fluo4-AM fluorescence; read-out: Human TRPML 1 EC50
Experimental: (§1) HEK-293 Trex cells were stably transfected with a construct consisting of the human coding sequence for TRPML1 cloned into the tet-inducible plasmid pCDNA5 T/O. Mutations were introduced into the TRPML1 sequence to facilitate expression on the cell surface (Silvia Vergarajauregui, Rosa Puertollano Traffic. 2006 March; 7(3): 337-353). Briefly, the cells are cultured in 150 mm round tissue culture dishes containing 20 mL of media. The day before the assay the cells are rinsed with DPBS-Ca-Mg and then treated briefly with Trypsin-EDTA. The Trypsin-EDTA is diluted with growth media, and cells are counted. 38×10^6 cells are re-plated into 150 mm round tissue culture dishes in media containing 0.5 ug/mL doxycycline to induce expression of hTRPML1.
(§2) The day of the experiment cells are lifted from the plates as above and collected by centrifugation. The cells are then suspended in dye loading buffer consisting of Ringer's solution supplemented with 0.1% Pluronic Acid and 1 micromolar Fluo4-AM dye. Cells are loaded for ~60 minutes in the dark with occasional mixing. The cells are collected by centrifugation, the loading media aspirated, and the cells resuspended in 25 mL Ringer's solution and incubated ~60 minutes in the dark. The cells are again collected by centrifugation, rinsed in Ringer's Solution and resuspended to 0.2×10^6 cells/mL in modified Ringer's solution containing 10 mM calcium.
(§3) Compounds are dissolved to a concentration of 10 millimolar with DMSO. Compound plates are created by dispensing compounds into 384 well black wall clear bottom plates (Greiner 781091). Positive and negative controls are included on each plate. Typically, different amounts of each compound are tested ranging from 100 nanoMoles (20 micromolar final concentration) decreasing in half-log steps to 31 picoMoles (6 nanomolar final concentration). Each concentration is typically tested in triplicate.
(§4) 50 microliters of dye-loaded cells are dispensed into each well of the compound assay plate created above. The fluorescence in each well is then determined with an excitation wavelength of 480 nm and an emission wavelength of 540 nm using either a Molecular Devices SpectraMax multimode plate reader or a Hamamatsu FDSS/uCell plate imager.
(§5) The resulting fluorescence for each well is exported as an ascii file and loaded into our LIMS for analysis. The percent activity of each compound at each concentration is determined by comparison to the positive and negative control wells included in each plate.
(§6) EC50 values were calculated using a non-linear regression of Prism. In the table, “A” indicates an EC50 of less than 100 nM, “B” indicates an EC50 range from 100 nM to 500 nM; “C” indicates an EC50 range from 500 nM to 2 μM; and “D” indicates an EC50 greater than 2 μM.

Human TRPML2 = target: T1, Human TRPML2 (Homo sapiens, UniProt Q8IZK6); test: Fluorescent TRPML2 assay (as for TRPML1); conditions: as TRPML1 assay with TRPML2 subtype; read-out: Human TRPML 2 EC50
T1 construct: expressed in transfected cells
T1 sequence (Q8IZK6 1-566): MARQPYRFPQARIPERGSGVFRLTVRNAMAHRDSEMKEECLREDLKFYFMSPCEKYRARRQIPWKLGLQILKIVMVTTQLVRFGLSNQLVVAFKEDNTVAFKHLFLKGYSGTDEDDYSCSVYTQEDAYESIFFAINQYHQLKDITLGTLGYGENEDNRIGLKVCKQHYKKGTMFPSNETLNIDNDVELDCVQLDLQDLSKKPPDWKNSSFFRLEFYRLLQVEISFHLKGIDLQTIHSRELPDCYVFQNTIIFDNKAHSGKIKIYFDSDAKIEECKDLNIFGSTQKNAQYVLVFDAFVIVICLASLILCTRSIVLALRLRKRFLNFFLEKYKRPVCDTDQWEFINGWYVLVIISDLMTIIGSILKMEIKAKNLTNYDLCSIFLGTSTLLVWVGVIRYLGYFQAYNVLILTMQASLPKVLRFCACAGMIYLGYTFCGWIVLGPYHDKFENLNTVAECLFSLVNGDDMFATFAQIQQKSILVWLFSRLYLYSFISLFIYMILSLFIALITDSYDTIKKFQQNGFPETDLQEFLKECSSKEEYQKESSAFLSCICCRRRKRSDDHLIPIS
Experimental: as §1, §2, §3, §4, §5
(§7) Assays for TRPML2 and TRPML3 were performed as above for TRPML1, by substituting the appropriate TRPML2 or TRPML3 subtype for the TRPML1.
as §6

Human TRPML3 = target: T2, Human TRPML3 (Homo sapiens, UniProt Q8TDD5); test: Fluorescent TRPML3 assay (as for TRPML1); conditions: as TRPML1 assay with TRPML3 subtype; read-out: Human TRPML 3 EC50
T2 construct: expressed in transfected cells
T2 sequence (Q8TDD5 1-553): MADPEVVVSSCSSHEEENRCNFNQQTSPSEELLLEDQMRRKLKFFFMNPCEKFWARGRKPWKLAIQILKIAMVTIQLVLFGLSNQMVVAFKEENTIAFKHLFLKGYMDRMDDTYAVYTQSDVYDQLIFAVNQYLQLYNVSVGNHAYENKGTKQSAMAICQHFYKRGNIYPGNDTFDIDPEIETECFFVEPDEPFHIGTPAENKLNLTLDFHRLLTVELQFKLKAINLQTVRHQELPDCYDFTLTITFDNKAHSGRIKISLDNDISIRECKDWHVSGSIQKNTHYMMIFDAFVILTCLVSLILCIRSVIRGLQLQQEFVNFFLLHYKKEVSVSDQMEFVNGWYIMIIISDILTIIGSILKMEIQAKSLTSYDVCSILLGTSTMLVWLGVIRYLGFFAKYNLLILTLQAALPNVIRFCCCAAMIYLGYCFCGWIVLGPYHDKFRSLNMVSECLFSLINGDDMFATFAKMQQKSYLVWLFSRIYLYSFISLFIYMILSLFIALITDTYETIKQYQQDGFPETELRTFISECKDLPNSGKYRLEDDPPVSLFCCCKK
Experimental: as §1, §2, §3, §4, §5, §7, §6

human TRPML1, sequence (Q9GZU1 whole entry L15A/L16A/L577A/L578A, form open): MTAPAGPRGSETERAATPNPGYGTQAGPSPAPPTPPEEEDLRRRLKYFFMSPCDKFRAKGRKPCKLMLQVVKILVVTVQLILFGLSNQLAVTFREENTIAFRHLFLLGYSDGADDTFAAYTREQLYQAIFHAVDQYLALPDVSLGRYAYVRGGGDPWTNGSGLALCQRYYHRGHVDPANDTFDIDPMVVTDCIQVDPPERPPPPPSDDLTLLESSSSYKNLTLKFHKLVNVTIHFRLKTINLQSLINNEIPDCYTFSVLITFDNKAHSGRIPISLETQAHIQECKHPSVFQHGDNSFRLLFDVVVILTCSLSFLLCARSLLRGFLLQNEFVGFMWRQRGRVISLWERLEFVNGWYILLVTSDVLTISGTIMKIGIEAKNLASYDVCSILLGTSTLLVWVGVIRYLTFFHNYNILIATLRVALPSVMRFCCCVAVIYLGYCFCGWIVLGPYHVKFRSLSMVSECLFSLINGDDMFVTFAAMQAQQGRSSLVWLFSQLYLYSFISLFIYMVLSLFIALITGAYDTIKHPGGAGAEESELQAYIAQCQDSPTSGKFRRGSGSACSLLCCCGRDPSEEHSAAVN

| SMILES | pEC50 (human TRPML1) | pEC50 (Human TRPML2) | pEC50 (Human TRPML3) |
| --- | --- | --- | --- |
| C[C@@H]1CN(c2ncnc3c2c(N2CCC2)cn3-c2cc(C#N)ccn2)CCN1C(=O)c1ccccc1 [Compound 101, (R)-2-(5-(azetidin-1-yl)-4-(4-benzoyl-3-methylpiperazin-1-yl)-7H-pyrrolo[2,3-d]pyrimidin-7-yl)isonicotinonitrile] | > 7.00 | 6.30 to 7.00 | > 7.00 |
| C[C@@H]1CN(c2ncnc3c2c(C2CC2)cn3-c2cc(C#N)ccn2)[C@@H](C)CN1C(=O)c1ccccc1 [Compound 102, 2-(4-((2S,5R)-4-benzoyl-2,5-dimethylpiperazin-1-yl)-5-cyclopropyl-7H-pyrrolo[2,3-d]pyrimidin-7-yl)isonicotinonitrile] | > 7.00 | < 5.70 | 6.30 to 7.00 |
| C[C@@H]1CN(c2ncnc3c2c(C(F)(F)F)cn3-c2cc(C#N)ccn2)[C@@H](C)CN1C(=O)c1ccccc1 [Compound 103, 2-(4-((2S,5R)-4-benzoyl-2,5-dimethylpiperazin-1-yl)-5-(trifluoromethyl)-7H-pyrrolo[2,3-d]pyrimidin-7-yl)isonicotinonitrile] |  | 5.70 to 6.30 | > 7.00 |
| Cc1cn(-c2cc(C#N)ccn2)c2ncnc(N3C[C@@H](C)N(C(=O)c4ccccc4)C[C@@H]3C)c12 [Compound 104, 2-(4-((2S,5R)-4-benzoyl-2,5-dimethylpiperazin-1-yl)-5-methyl-7H-pyrrolo[2,3-d]pyrimidin-7-yl)isonicotinonitrile] |  |  | 6.30 to 7.00 |
| C[C@@H]1CN(c2ncnc3c2c(C2CC2)cn3-c2cccc(F)c2)[C@@H](C)CN1C(=O)c1ccccc1 [Compound 105, ((2R,5S)-4-(5-cyclopropyl-7-(3-fluorophenyl)-7H-pyrrolo[2,3-d]pyrimidin-4-yl)-2,5-dimethylpiperazin-1-yl)(phenyl)methanone] | > 7.00 | < 5.70 | 5.70 to 6.30 |
| C[C@@H]1CN(c2ncnc3c2c(C(F)(F)F)cn3-c2cccc(F)c2)[C@@H](C)CN1C(=O)c1ccccc1 [Compound 106, ((2R,5S)-4-(7-(3-fluorophenyl)-5-(trifluoromethyl)-7H-pyrrolo[2,3-d]pyrimidin-4-yl)-2,5-dimethylpiperazin-1-yl)(phenyl)methanone] | > 7.00 | < 5.70 | 5.70 to 6.30 |
| C[C@@H]1CN(c2ncnc3c2c(N2CCC2)cn3-c2cc(C#N)ccn2)[C@@H](C)CN1C(=O)c1ccccc1 [Compound 107, 2-(5-(azetidin-1-yl)-4-((2S,5R)-4-benzoyl-2,5-dimethylpiperazin-1-yl)-7H-pyrrolo[2,3-d]pyrimidin-7-yl)isonicotinonitrile] | > 7.00 | 6.30 to 7.00 | 6.30 to 7.00 |
| C[C@@H]1CN(c2ncnc3c2c(C2CCC2)cn3-c2cccc(F)c2)[C@@H](C)CN1C(=O)c1ccccc1 [Compound 111, ((2R,5S)-4-(5-cyclobutyl-7-(3-fluorophenyl)-7H-pyrrolo[2,3-d]pyrimidin-4-yl)-2,5-dimethylpiperazin-1-yl)(phenyl)methanone] | 6.30 to 7.00 |  | 5.70 to 6.30 |
| C[C@@H]1CN(c2ncnc3c2c(C(F)(F)F)cn3-c2cc(C#N)ccn2)CCN1C(=O)c1ccccc1 [Compound 115, (R)-2-(4-(4-benzoyl-3-methylpiperazin-1-yl)-5-(trifluoromethyl)-7H-pyrrolo[2,3-d]pyrimidin-7-yl)isonicotinonitrile] |  |  | > 7.00 |
| C[C@H]1CN(C(=O)c2ccccc2)CCN1c1ncnc2c1c(C(F)(F)F)cn2-c1cc(C#N)ccn1 [Compound 117, (S)-2-(4-(4-benzoyl-2-methylpiperazin-1-yl)-5-(trifluoromethyl)-7H-pyrrolo[2,3-d]pyrimidin-7-yl)isonicotinonitrile] |  |  | 5.70 to 6.30 |
| C[C@@H]1CN(c2ncnc3c2c(-c2ccccn2)cn3-c2cc(C#N)ccn2)[C@@H](C)CN1C(=O)c1ccccc1 [Compound 118, 2-(4-((2S,5R)-4-benzoyl-2,5-dimethylpiperazin-1-yl)-5-(pyridin-2-yl)-7H-pyrrolo[2,3-d]pyrimidin-7-yl)isonicotinonitrile] | 6.30 to 7.00 |  | 5.70 to 6.30 |

From US20260226067A1, “MODULATORS OF TRPML, THEIR COMPOSITIONS AND METHODS OF USE” (Caraway Therapuetics, Inc., priority 2023, published 2026)
